Reference: patent publication US20250136579A1, “SALTS AND FREE BASES OF BIFUNCTIONAL COMPOUND AND POLYMORPH FORMS THEREOF” (NURIX THERAPEUTICS, INC., priority 2023, published 2025)
Entries after “also recorded” stand apart in the source; their conditions may differ.

Tests used:
Format in all cases: physicochemical
[1] = heat stress on a TGA, recovered material analyzed by XRPD; conditions: held ~1 minute; for Post-XRPD (100° C.): heated on TGA to 100° C.; for Post-XRPD (150° C.): heated on TGA to 150° C.
Method: Samples of each form were heat stressed on a TGA. Samples were heated to the specified temperature and held at that temperature for approximately 1 minute. The material was then recovered from the TGA and analyzed by XRPD.

[2] = stressing at 40° C./75% relative humidity (stability study, XRPD); conditions: 7 days
[3] = storage under ambient conditions (15° C. to 30° C.), form conversion; conditions: temperature of from 15° C. to 30° C.
Method: For Free Base Form E, Free Base Form F, Free Base Form G, Free Base Form H, and Free Base Form J: two different instruments were used for characterizing the materials by XRPD. Samples were analysed dry with a Malvern Panalytical Xpert Pro diffractometer, except for Free Base Form F. Free Base Form F was analysed using a Malvern Panalytical Empyrean diffractometer.
Napsylate Salt Form C was analysed by XRPD.

Compound: CN1CCN([C@@H]2CCCN(c3cnc(C(N)=O)c(Nc4ccc(C5CCN(CC6CCN(c7ccc(C(=O)N[C@H]8CCC(=O)NC8=O)nc7)CC6)CC5)cc4)n3)C2)C1=O [Free Base Form A]
- Post-XRPD (100° C.) ([1]; listed as A): Free Base Form A

Compound: CN1CCN([C@@H]2CCCN(c3cnc(C(N)=O)c(Nc4ccc(C5CCN(CC6CCN(c7ccc(C(=O)N[C@H]8CCC(=O)NC8=O)nc7)CC6)CC5)cc4)n3)C2)C1=O [Free Base Form B]
- Post-XRPD (150° C.) ([1]; listed as B): Free Base Form A

Compound: CN1CCN([C@@H]2CCCN(c3cnc(C(N)=O)c(Nc4ccc(C5CCN(CC6CCN(c7ccc(C(=O)N[C@H]8CCC(=O)NC8=O)nc7)CC6)CC5)cc4)n3)C2)C1=O [Free Base Form C]
- Post-XRPD (150° C.) ([1]; listed as C): Free Base Form C

Compound: CN1CCN([C@@H]2CCCN(c3cnc(C(N)=O)c(Nc4ccc(C5CCN(CC6CCN(c7ccc(C(=O)N[C@H]8CCC(=O)NC8=O)nc7)CC6)CC5)cc4)n3)C2)C1=O [Free Base Form D]
- Post-XRPD (100° C.) ([1]; listed as D): Free Base Form D

Compound: CN1CCN([C@@H]2CCCN(c3cnc(C(N)=O)c(Nc4ccc(C5CCN(CC6CCN(c7ccc(C(=O)N[C@H]8CCC(=O)NC8=O)nc7)CC6)CC5)cc4)n3)C2)C1=O [Free Base Form E]
- physical stability to stressing at 40° C./75% relative humidity (RH) [2]: physically stable

Compound: CN1CCN([C@@H]2CCCN(c3cnc(C(N)=O)c(Nc4ccc(C5CCN(CC6CCN(c7ccc(C(=O)N[C@H]8CCC(=O)NC8=O)nc7)CC6)CC5)cc4)n3)C2)C1=O [Free Base Form F]
- physical stability to ambient conditions [3]: converted on drying at ambient conditions (including a temperature of from 15 °C to 30° C.) to Free Base Form J; also recorded: not physically stable
- physical stability to stressing at 40° C./75% relative humidity (RH) [2]: not physically stable
